{
  "source": "patent US20030060511A1",
  "about": "“Method for treatment of ocular hypertension and glaucoma” (SUCAMPO AG, priority 2001, published 2003)",
  "key": {"[1]": {"system": "IOP in Normal Monkeys", "test": "IOP in normal monkeys after single topical application of eye drops (Example 1)", "assay_type": "in vivo, cynomolgus monkeys", "details": "for IOP lowering (change in IOP from time 0, ΔIOP): single administration, significant vs vehicle control (Dunnett's test)", "procedure": "Male cynomolgus monkeys (eight monkeys, body weights 3.0-4.5 kg) were used. To the right eyes of the monkeys, 30 μL/eye of 0.005% 13,14-dihydro-15-keto-17-phenyl-18,19,20-trinor-PGF2α-isopropyl ester eye drops, 0.005% 13,14-dihydro-17-phenyl-18,19,20-trinor-PGF2α-isopropyl ester (latanoprost) eye drops or the vehicle was administered once with an interval of at least seven days, and the IOPs in the respective animals was measured.\n(§1) The animals were retained in the sitting position under systemic anesthesia with intramuscular injection of ketamine hydrochloride (Ketalar® 50, Sankyo Co. Ltd.) 7.5-10 mg/kg and their ocular surfaces were anesthetized with 0.4% oxybuprocaine hydrochloride (Benoxil® 0.4% solution, Santen Pharmaceuticals Co., Ltd.). After that, the IOP was measured with a pneumatonometer (Model 30 Classic, Mentor O & O, Inc.). The IOP was measured before (0 hour) and at 2, 4, 8, 12 and 24 hours after the administration of the test substances.\nChanges of the IOP from that of time 0 (ΔIOP) obtained in the each test groups were compared to that obtained in the vehicle-administered control group at each measurement times. Statistical analysis was made with the Dunnett's multiple comparison test. Critical rates less than 5% were evaluated to be statistically significant."}, "[2]": {"target": "FP receptor (Homo sapiens, UniProt P43088)", "sequence (P43088 whole entry)": "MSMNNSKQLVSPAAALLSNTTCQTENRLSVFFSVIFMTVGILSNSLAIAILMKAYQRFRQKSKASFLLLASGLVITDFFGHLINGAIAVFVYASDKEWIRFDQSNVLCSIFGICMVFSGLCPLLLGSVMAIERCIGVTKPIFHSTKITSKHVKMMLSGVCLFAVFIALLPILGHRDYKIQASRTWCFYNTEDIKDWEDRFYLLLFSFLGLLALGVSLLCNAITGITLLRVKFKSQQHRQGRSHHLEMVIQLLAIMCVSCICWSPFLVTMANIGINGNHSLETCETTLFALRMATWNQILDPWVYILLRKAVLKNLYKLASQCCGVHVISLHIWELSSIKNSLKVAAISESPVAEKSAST", "details": "background art; cited from earlier work"}, "[3]": {"system": "IOP in Normal Monkeys", "test": "IOP in normal monkeys after single topical application of eye drops, saline in the other eye (Example 2)", "assay_type": "in vivo, cynomolgus monkeys", "details": "0.005% eye drops, 30 μL/eye, IOP measured up to 24 hours, compared to saline eye", "procedure": "Male cynomolgus monkeys (eight monkeys, body weights 3.0-4.5 kg) were used. To the right eyes of the monkeys, 30 μL/eye of 0.005% 13,14-dihydro-15-keto-18-phenyl-19,20-dinor-PGF2α-isopropyl ester eye drops or 0.005% 13,14-dihydro-15-keto-17-phenoxy-18,19,20-trinor-PGF2α-isopropyl ester eye drops were administered, and to the left eyes, 30 μL/eye of saline was administered. IOP of the animals were determined.\nas §1, with “The IOPs were” for “The IOP was”, “of” for “of the”\nChanges of the IOP from that of time 0 (ΔIOP) obtained in the each test eyes ([…] eyes) were compared to those obtained in the vehicle administrated eyes (control group) at each measurement times."}},
  "data": [
    {"smiles": "CC(C)OC(=O)CCC/C=C\\C[C@@H]1[C@@H](CCC(=O)CCc2ccccc2)[C@H](O)C[C@@H]1O", "note": "[13,14-dihydro-15-keto-17-phenyl-18,19,20-trinor-PGF2α-isopropyl ester]", "values": [
      {"measurement": "Difference of ΔIOPs versus latanoprost group", "setting": "[1]; 0.005% eye drops each, at any time point of the measurement (2-24 hours)", "value": "no significant difference"},
      {"measurement": "Duration of IOP lowering by single administration", "setting": "[1]; 0.005% eye drops, 30 μL/eye, IOP measured up to 24 hours", "value": "can lower the IOP and keep the low IOP throughout the day"},
      {"measurement": "IOP lowering (change in IOP from time 0, ΔIOP)", "setting": "[1]; 0.005% eye drops, 30 μL/eye, 4 hours after administration", "value": "2.3±0.4", "unit": "mmHg"},
      {"measurement": "IOP lowering (change in IOP from time 0, ΔIOP)", "setting": "[1]; 0.005% eye drops, 30 μL/eye, 8 hours after administration", "value": "2.1±0.4", "unit": "mmHg"},
      {"measurement": "IOP lowering (change in IOP from time 0, ΔIOP)", "setting": "[1]; 0.005% eye drops, 30 μL/eye, 12 hours after administration", "value": "2.4±0.5", "unit": "mmHg"}
    ]},
    {"smiles": "CC(C)OC(=O)CCC/C=C\\C[C@@H]1[C@@H](CC[C@@H](O)CCc2ccccc2)[C@H](O)C[C@@H]1O", "note": "[latanoprost, 13,14-dihydro-17-phenyl-18,19,20-trinor-PGF2α-isopropyl ester]", "values": [
      {"measurement": "Affinity with / effect on FP receptor", "setting": "[2]", "value": "strong affinity"}
    ]},
    {"smiles": "CCCCCCCC(=O)CC[C@@H]1[C@@H](C/C=C\\CCCC(=O)OC(C)C)[C@@H](O)C[C@H]1O", "note": "[isopropyl unoprostone, 13,14-dihydro-15-keto-20-ethyl-PGF2α-isopropyl ester]", "values": [
      {"measurement": "Affinity with / effect on FP receptor", "setting": "[2]", "value": "substantially no effect"}
    ]},
    {"smiles": "CC(C)OC(=O)CCC/C=C\\CC1C(O)CC(O)C1CCC(=O)CCOc1ccccc1", "note": "(stereo not drawn) [13,14-dihydro-15-keto-17-phenoxy-18,19,20-trinor-PGF2α-isopropyl ester]", "values": [
      {"measurement": "Duration of IOP lowering by single administration", "setting": "[3]", "value": "can lower the IOP and keep the low IOP throughout a day"}
    ]},
    {"smiles": "CCCCC[C@H](O)/C=C/[C@@H]1[C@@H](C/C=C\\CCCC(=O)O)[C@@H](O)C[C@H]1O", "note": "[PGF2α]", "values": [
      {"measurement": "Affinity with / effect on FP receptor", "setting": "[2]", "value": "strong affinity"}
    ]},
    {"smiles": "CC(C)OC(=O)CCC/C=C\\CC1C(O)CC(O)C1CCC(=O)CCCc1ccccc1", "note": "(stereo not drawn) [13,14-dihydro-15-keto-18-phenyl-19,20-dinor-PGF2α-isopropyl ester]", "values": [
      {"measurement": "Duration of IOP lowering by single administration", "setting": "[3]", "value": "can lower the IOP and keep the low IOP throughout a day"}
    ]}
  ]
}
